The subject of this experiment is C57B⅙ mice. In words: In vivo hepatic VLDL-TG production using Triton WR1339 in C57B⅙ mice. Here is the method:
C57B⅙ and apoE-deficient mice were treated with intraperitoneal injections of 50 μl vehicle or 40 mg/kg WHI-P164 in 50 μl vehicle for 7 consecutive days, followed by a 36 hour fast to shut down intestinal chylomicron synthesis. […] Blood samples were taken at 0 and 4 hours after Triton WR1339 injection and plasma TG levels were measured enzymatically using a commercially available enzymatic kit (Sigma Chemical Co.). Alternatively, food was returned to the mice after a 36 hour fast and blood samples were collected at 0, 1, 3, 6, and 9 hours after returning the food. Accumulation of chylomicron-TG was determined as accumulation of plasma TG.
To determine if WHI-P164 prevent hepatic TG accumulation by relieving 9 block in VLDL-TG secretion or by inhibiting upstream TG synthesis, in vivo hepatic VLDL-TG synthesis was analyzed. Synthesis was determined by following the accumulation of VLDL-TG after shutting down VLDL catabolism with Triton WR1339 injection and intestinal chylomicron synthesis with a 36 hours fast.
C57B⅙ and apoE-deficient mice were treated with intra peritoneal injections of vehicle or 40 mg/kg WHI-P164 (in 50 μl vehicle) for 7 consecutive days, followed by a 36 hour fast to shut down intestinal chylomicron synthesis. […] Blood samples (50 μl) were taken at 0 and 4 hours after Triton WR1339 injection and plasma TG was measured enzymatically using a commercially available enzymatic kit (Sigma Chemical Co.), as previously reported (Kuipers, supra).

Structures are written as SMILES.

As for `COc1cc2ncnc(C(=O)c3cccc(Br)c3)c2cc1OC` [WHI-P164, 4-(3′-bromobenzoyl)-6,7-dimethoxyquinazoline], under “C57B⅙ mice, 40 mg/kg, versus vehicle”, the “Accumulation of VLDL-TG after Triton WR1339 treatment” value is “significantly less accumulation of VLDL-TG than vehicle-treated control mice”. Under “apo e+/+ (C57B1/6), 40 mg/kg i.p. 7 days, 36 hour fast”, the “Triglyceride, Pre-Triton WR 1339” value was 124 ± 12 (n = 5) mg/dL. In addition, the “Triglyceride, Post-Triton WR 1339” value (apo e+/+ (C57B1/6), 40 mg/kg i.p. 7 days, 36 hour fast, 4 hours after Triton WR1339) is 1031 ± 95 (n = 8) mg/dL.

The record behind these values is US6410545B1, “Lipid lowering quinazoline dietary supplement composition” (Parker Hughes Institute, priority 1998, dated 2002).
